The assay concerns P388 leukemia ip, CD2F1 mice, survival T/C. Kind of assay: NCI In Vivo Anticancer Drug Screen. Data for tumor model P388 Leukemia (intraperitoneal) in CD2F1 (CDF1) mice. As to conditions: endpoint: median survival time, higher = longer survival. The essentials:
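Mice carrying the transplanted tumor received test compound or vehicle. Survival was recorded in each group, and the value is the treated-group measurement divided by that of the vehicle-treated control group.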

[1] abbreviates: dose: 100.0 mg/kg/injection, schedule: Q01DX001 (ip), vehicle: Klucel (hydroxypropylcellulose) (HPC).
The mark [2] stands for this setting: dose: 200.0 mg/kg/injection, schedule: Q01DX001 (ip), vehicle: Klucel (hydroxypropylcellulose) (HPC).
Setting [3] is: dose: 400.0 mg/kg/injection, schedule: Q01DX001 (ip), vehicle: Klucel (hydroxypropylcellulose) (HPC).
Where [4] appears, read: dose: 100.0 mg/kg/injection, schedule: Q01DX001 (ip), vehicle: saline with Tween-80.
Where [5] appears, read: dose: 50.0 mg/kg/injection, schedule: Q01DX005 (ip), vehicle: saline with Tween-80.
Where [6] appears, read: dose: 100.0 mg/kg/injection, schedule: Q01DX005 (ip), vehicle: saline with Tween-80.

The source of these data is PubChem BioAssay AID330 (DTP/NCI, 2004).

“And” between values parts separate entries of the source, which are not always exact repeats. Equal entries are not always repeated. Inconclusive results and toxic doses are left out.

On to `CC(C)C1NC(C(C)C)N2C(C(C)C)N12` (configuration not stated), for which the T/C reads like this: under setting [1], 100 % of control; under setting [2], 100 % of control; under setting [3], 106 % of control.
Consider `Cc1ccc(N/N=c2\c3nc4ccccc4nc2n(-c2ccccc2C)c(=S)n3-c2ccc(C)cc2)cc1`, for which the T/C by setting is: (dose: 60.0 mg/kg/injection, schedule: Q01DX005 (ip), vehicle: saline with Tween-80) 93 % of control; (dose: 120.0 mg/kg/injection, schedule: Q01DX005 (ip), vehicle: saline with Tween-80) 96 % of control.
With `CCN(CC)Cc1c(O)ccc(C(C)=O)c1O`, the T/C reads like this: (dose: 50.0 mg/kg/injection, schedule: Q01DX005 (ip), vehicle: saline) 89 % of control; (dose: 100.0 mg/kg/injection, schedule: Q01DX005 (ip), vehicle: saline) 100 % of control.
On to `N#CCc1nc2ncc(Br)cc2[nH]1`, for which the T/C under setting [4] is 100 % of control; the T/C (dose: 200.0 mg/kg/injection, schedule: Q01DX001 (ip), vehicle: saline with Tween-80) is 104 % of control; the T/C (dose: 400.0 mg/kg/injection, schedule: Q01DX001 (ip), vehicle: saline with Tween-80) is 100 % of control.
For the compound `Cc1ccc(N=Nc2c(C)noc2C)c(Br)c1`, the T/C by setting is: (dose: 60.0 mg/kg/injection, schedule: Q01DX005 (ip), vehicle: Klucel (hydroxypropylcellulose) (HPC)) 93 % of control; (dose: 120.0 mg/kg/injection, schedule: Q01DX005 (ip), vehicle: Klucel (hydroxypropylcellulose) (HPC)) 100 % of control; (dose: 240.0 mg/kg/injection, schedule: Q01DX005 (ip), vehicle: Klucel (hydroxypropylcellulose) (HPC)) 92 % of control.
For `CC(=O)OC1C(C)OC(OC2C(OC(=O)C3CCC4C(C3)OC3(CC(OC(=O)/C=C/c5ccccc5)C(C)CO3)C43CO3)OC(C)C(OC(C)=O)C2OC(C)=O)C(OC(C)=O)C1OC(C)=O` (configuration not stated), the T/C is 100 % of control (dose: 3.0 mg/kg/injection, schedule: Q01DX005 (ip), vehicle: saline); 100 % of control (dose: 3.75 mg/kg/injection, schedule: Q01DX009 (ip), vehicle: saline + alcohol); 106 % of control (dose: 6.0 mg/kg/injection, schedule: Q01DX005 (ip), vehicle: saline); 98 % of control (dose: 7.5 mg/kg/injection, schedule: Q01DX009 (ip), vehicle: saline + alcohol); 99 % of control (dose: 12.0 mg/kg/injection, schedule: Q01DX005 (ip), vehicle: saline); 102 % of control (dose: 15.0 mg/kg/injection, schedule: Q01DX009 (ip), vehicle: saline + alcohol). Besides, the T/C was 106 % of control (dose: 24.0 mg/kg/injection, schedule: Q01DX005 (ip), vehicle: saline) and 104 % of control (dose: 30.0 mg/kg/injection, schedule: Q01DX009 (ip), vehicle: saline + alcohol).
For `Fc1ccc(CSC(=S)Nc2ccc(I)cc2)cc1`, the T/C was 97 % of control (dose: 50.0 mg/kg/injection, schedule: Q01DX009 (ip), vehicle: suspension in saline); 93 % of control (dose: 100.0 mg/kg/injection, schedule: Q01DX009 (ip), vehicle: suspension in saline); 103 % of control (dose: 200.0 mg/kg/injection, schedule: Q01DX009 (ip), vehicle: suspension in saline).
As for `COC1CC(O)OC1C(NC(C)=O)SC12CC3CC(CC(C3)C1)C2` (configuration not stated), the T/C is, setting by setting: (dose: 100.0 mg/kg/injection, schedule: Q04DX003 (ip), vehicle: Klucel (hydroxypropylcellulose) (HPC)) 104 % of control; (dose: 200.0 mg/kg/injection, schedule: Q04DX003 (ip), vehicle: Klucel (hydroxypropylcellulose) (HPC)) 106 % of control; (dose: 400.0 mg/kg/injection, schedule: Q04DX003 (ip), vehicle: Klucel (hydroxypropylcellulose) (HPC)) 104 % of control.
For the compound `CC12C(=O)OC(=O)C1(C)C1CCC2O1` (configuration not stated), the T/C by setting is: (dose: 0.93 mg/kg/injection, schedule: Q01DX005 (ip), vehicle: saline with Tween-80) 109 % of control; (dose: 1.87 mg/kg/injection, schedule: Q01DX005 (ip), vehicle: saline with Tween-80) 102 % of control.
On to `c1ccc2cc(N3CCOCC3)ccc2c1`, for which the T/C is 116 % of control (dose: 100.0 mg/kg/injection, schedule: Q01DX009 (ip), vehicle: saline with Tween-80); 119 % of control (dose: 200.0 mg/kg/injection, schedule: Q01DX009 (ip), vehicle: saline with Tween-80); 116 % of control (dose: 400.0 mg/kg/injection, schedule: Q01DX009 (ip), vehicle: saline with Tween-80).
As for `O=C(Oc1ccccc1)N1CCCCC1`, the T/C reads like this: (dose: 12.5 mg/kg/injection, schedule: Q01DX001 (ip), vehicle: saline with Tween-80) 95 % of control; (dose: 25.0 mg/kg/injection, schedule: Q01DX001 (ip), vehicle: saline with Tween-80) 99 % of control; (dose: 50.0 mg/kg/injection, schedule: Q01DX001 (ip), vehicle: saline with Tween-80) 106 % of control; under setting [4], 104 % of control.
Consider `C=C(C)C1=CC(=O)C(C)(C)O1`, for which the T/C (dose: 12.5 mg/kg/injection, schedule: Q01DX009 (ip), vehicle: saline with Tween-80) was 106 % of control; the T/C (dose: 25.0 mg/kg/injection, schedule: Q01DX009 (ip), vehicle: saline with Tween-80) is 105 % of control; the T/C (dose: 50.0 mg/kg/injection, schedule: Q01DX009 (ip), vehicle: saline with Tween-80) is 102 % of control.
For `O=S(=O)(c1ccccc1)N1CCN(S(=O)(=O)c2ccccc2)COC1`, the T/C by setting is: under setting [5], 103 % of control; under setting [6], 101 % of control; (dose: 200.0 mg/kg/injection, schedule: Q01DX005 (ip), vehicle: saline with Tween-80) 102 % of control.
On to `COc1ccccc1NC(=S)N/N=C\c1cc(N=Nc2ccccc2)cc(OC)c1O`, for which the T/C is 89 % of control under setting [5] and 89 % of control under setting [6].
In the case of `COc1ccc2[nH]c3c(C)c4ccn5c(=O)c6ccccc6cc5c4c(C)c3c2c1`, the T/C was 87 % of control (dose: 0.1 mg/kg/injection, schedule: Q04DX003 (ip), vehicle: distilled water + Tween-80); 100 % of control (dose: 0.2 mg/kg/injection, schedule: Q04DX003 (ip), vehicle: distilled water + Tween-80); 91 % of control (dose: 0.4 mg/kg/injection, schedule: Q04DX003 (ip), vehicle: distilled water + Tween-80); 87 % of control (dose: 0.78 mg/kg/injection, schedule: Q04DX003 (ip), vehicle: distilled water + Tween-80); 92 % of control (dose: 0.8 mg/kg/injection, schedule: Q04DX003 (ip), vehicle: distilled water + Tween-80); 91 % of control (dose: 200.0 mg/kg/injection, schedule: Q04DX003 (ip), vehicle: distilled water + Tween-80).
As for `Cc1c2c(nn1C)CC(C)(C)OC2=O`, the T/C reads like this: under setting [1], 95 % of control; under setting [2], 100 % of control; under setting [3], 101 % of control.
Turning to `Cc1ccc(NC(=S)NCC2CCCO2)cc1C` (configuration not stated), the T/C runs as follows: (dose: 50.0 mg/kg/injection, schedule: Q01DX009 (ip), vehicle: Klucel (hydroxypropylcellulose) (HPC)) 102 % of control and 98 % of control; (dose: 100.0 mg/kg/injection, schedule: Q01DX009 (ip), vehicle: Klucel (hydroxypropylcellulose) (HPC)) 91 % of control; (dose: 200.0 mg/kg/injection, schedule: Q01DX009 (ip), vehicle: Klucel (hydroxypropylcellulose) (HPC)) 92 % of control and 93 % of control and 97 % of control.
As to `CCOc1c(N=Nc2cccc(Cl)c2)c(C)nn1C(N)=S`, the T/C is 102 % of control (dose: 60.0 mg/kg/injection, schedule: Q01DX005 (ip), vehicle: Klucel + Tween-80); 93 % of control (dose: 120.0 mg/kg/injection, schedule: Q01DX005 (ip), vehicle: Klucel + Tween-80); 95 % of control (dose: 240.0 mg/kg/injection, schedule: Q01DX005 (ip), vehicle: Klucel + Tween-80).
For the compound `C[CH2][Sn]([Cl])([Cl])[CH2]C`, the T/C reads like this: (dose: 1.56 mg/kg/injection, schedule: Q04DX003 (ip), vehicle: saline) 104 % of control; (dose: 3.12 mg/kg/injection, schedule: Q04DX003 (ip), vehicle: saline) 111 % of control and 113 % of control and 116 % of control; (dose: 6.25 mg/kg/injection, schedule: Q04DX003 (ip), vehicle: saline) 118 % of control [middle of 5 runs]; (dose: 12.5 mg/kg/injection, schedule: Q04DX003 (ip), vehicle: saline) 121 % of control and 101 % of control and 115 % of control; (dose: 25.0 mg/kg/injection, schedule: Q04DX003 (ip), vehicle: saline) 153 % of control.
In the case of `CCOC(=O)c1c(C2OC(CO)C(O)C2O)cn(C)c1-c1ccccc1` (configuration not stated), the T/C was 103 % of control (dose: 50.0 mg/kg/injection, schedule: Q01DX001 (ip), vehicle: Klucel (hydroxypropylcellulose) (HPC)); 98 % of control under setting [1]; 98 % of control under setting [2].
